From ChEMBL document CHEMBL1201862, “PubChem BioAssay data set” (2004) come the findings set out here.

What all share (assay): inhibition of tumour cell growth, NCI panel, 48 h
Assay [1] relates to RXF 393.
Assay [2] deals with RPMI-8226.
Assay [3] deals with HCT-116.
The test system of assay [4] is A549.
The test system of assay [5] is U-251.
The test system of assay [6] is SK-MEL-5.
Assay [7] deals with OVCAR-3.
The test system of assay [8] is A498.
In assay [9] the test system is NCI-H226.
Assay [10] relates to SF-268.
Assay [11] has as its system SW-620.
Assay [12] relates to SF-539.
In assay [13] the test system is M14.
For assay [14], the system named is UACC-62.
Assay [15] concerns NCI-H23.
The subject of assay [16] is OVCAR-4.
The test system of assay [17] is HOP-92.
The subject of assay [18] is CAKI-1.
For assay [19], the system named is HCC 2998.
The test system of assay [20] is MOLT-4.

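Each compound was tested at five concentrations against cells in 96-well plates for 48 hours. The concentration for 50% growth inhibition is given as GI50.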 Activity calls are given as the source filed them. Rule as the data show it: active = GI50 up to about 1.1 µM and inactive = higher.

Turning to `FC(F)(F)c1ccc(/N=N/N2CCCC2)cc1`, the GI50 is > 100 µM (inactive) in assay [1]; > 100 µM (inactive) in assay [2]; > 100 µM (inactive) in assay [3]; > 100 µM (inactive) in assay [4]; > 100 µM (inactive) in assay [5]; 42.6 µM (inactive) in [6]. For the same molecule, the GI50 in assay [7], in [8], in assay [9], in assay [10], in assay [11] and in [12] was > 100 µM (inactive) each time. The GI50 in assay [13] was > 100 µM (inactive); in assay [14], > 100 µM (inactive); in assay [15], 65.8 µM (inactive); in [16] it was > 100 µM (inactive); in assay [17] it was 80 µM (inactive); in assay [18] it was > 100 µM (inactive). The GI50 in assay [19] and in assay [20] was > 100 µM (inactive) throughout.

Turning to `N[C@]1(C(=O)O)C[C@@H]2C(Br)=NO[C@@H]2C1`, the GI50 in assay [1] is > 100 µM (inactive); in [2] it was > 100 µM (inactive); in assay [3] it was 56 µM (inactive); in assay [4] it was > 100 µM (inactive); in assay [5], > 100 µM (inactive); in assay [6], > 100 µM (inactive). The GI50 in assay [7], in [8], in [9], in [10], in [11] and in [12] was > 100 µM (inactive) throughout. In addition, the GI50 in [13], in [14], in assay [15], in assay [16], in [17] and in [18] was > 100 µM (inactive) each time. The GI50 in [19] and in assay [20] was > 100 µM (inactive) throughout.

For `Cc1c2cc[n+](C)cc2c(C)c2c1[nH]c1ccccc12`, the GI50 is 1.7 µM (inactive) in assay [1]; 8.02 µM (inactive) in assay [2]; 3.76 µM (inactive) in assay [3]; 0.249 µM (active) in assay [4]; 0.421 µM (active) in assay [5]; 1.28 µM (inactive) in [6]. The GI50 was 3.06 µM (inactive) in [7]; 2.39 µM (inactive) in [8]; 0.312 µM (active) in assay [9]; 0.467 µM (active) in assay [10]; 0.973 µM (active) in assay [11]; 0.505 µM (active) in [12]. The GI50 in assay [13] was 7.45 µM (inactive); in assay [14] it was 5.18 µM (inactive); in [15] it was 0.773 µM (active); in assay [16], 2.03 µM (inactive); in assay [17], 1.56 µM (inactive); in assay [18] it was 2.69 µM (inactive). Also, the GI50 is 2.28 µM (inactive) in assay [19] and 0.861 µM (active) in [20].

For `Cc1ccc(O)c(C(c2ccc([N+](=O)[O-])cc2)c2cc(C)ccc2O)c1`, the GI50 in assay [1] is 8.09 µM (inactive); in assay [2] it was 10.1 µM (inactive); in assay [3] it was 14.4 µM (inactive); in assay [4], 9.66 µM (inactive); in [5], 16.8 µM (inactive); in assay [6], 5.75 µM (inactive). The GI50 in [7] was 6.32 µM (inactive); in [8], 18.4 µM (inactive); in [9], 15.9 µM (inactive); in [10], 5.57 µM (inactive); in assay [11] it was 13.5 µM (inactive); in assay [12] it was 15.3 µM (inactive). Further, the GI50 in assay [13] was 11.7 µM (inactive); in [14] it was 7.4 µM (inactive); in [15], 7.93 µM (inactive); in assay [16] it was 10.5 µM (inactive); in assay [17] it was 11.1 µM (inactive); in assay [18], 15.1 µM (inactive). The figures for the GI50 in assay [19] and in [20] were 2.99 µM (inactive) and 5.12 µM (inactive), respectively.

Consider `O=C1c2ccccc2C(=O)c2[nH]c(=O)c(/C=N/Nc3ccc([N+](=O)[O-])cc3)nc21`, for which the GI50 in [1] was 6.04 µM (inactive); in [2] it was > 37 µM (inactive); in [3], 19.8 µM (inactive); in assay [4] it was 3.52 µM (inactive); in [5] it was 7.24 µM (inactive); in assay [6], 1.62 µM (inactive). Also, the GI50 is 2.92 µM (inactive) in assay [7]; 4.67 µM (inactive) in [8]; 1.51 µM (inactive) in assay [9]; 8.59 µM (inactive) in assay [10]; 12.1 µM (inactive) in assay [11]; 5.93 µM (inactive) in assay [12]. Besides, the GI50 in [13] was 2.01 µM (inactive); in [14], 2.09 µM (inactive); in assay [15], 1.63 µM (inactive); in assay [16], 18.4 µM (inactive); in assay [17], 15.2 µM (inactive); in assay [18], 17.3 µM (inactive). Besides, the GI50 was 1.61 µM (inactive) in [19] and 22.9 µM (inactive) in assay [20].

`O=Cc1cc(O)ccc1Br`: the GI50 is 27.4 µM (inactive) in assay [1]; 2.81 µM (inactive) in assay [2]; 3.31 µM (inactive) in [3]; > 100 µM (inactive) in [4]; 3.74 µM (inactive) in [5]; 17.3 µM (inactive) in assay [6]. The GI50 was 6.3 µM (inactive) in [7]; > 100 µM (inactive) in [8]; 28.8 µM (inactive) in [9]; 9.93 µM (inactive) in assay [10]; 4.78 µM (inactive) in assay [11]; 4.3 µM (inactive) in assay [12]. The GI50 in assay [13] is 5.45 µM (inactive); in assay [14], 6.9 µM (inactive); in [15], 21.7 µM (inactive); in assay [16], 15 µM (inactive); in assay [17] it was 19 µM (inactive); in [18] it was 20 µM (inactive). Further, the GI50 in [19] was 11.8 µM (inactive); in assay [20], 4.15 µM (inactive).

With `O=C(CCCN1CCC(C(O)c2ccc(F)cc2)CC1)c1ccc(F)cc1` (centres undefined), the GI50 was 41.1 µM (inactive) in assay [1]; 66.5 µM (inactive) in [2]; 57 µM (inactive) in assay [3]; 64 µM (inactive) in assay [4]; 55.5 µM (inactive) in assay [5]; 46.7 µM (inactive) in assay [6]. Further, the GI50 in assay [7] was 57 µM (inactive); in assay [8] it was 49 µM (inactive); in assay [9], 53.3 µM (inactive); in assay [10], 59.6 µM (inactive); in assay [11], 61.8 µM (inactive); in assay [12] it was 59.4 µM (inactive). Moreover, the GI50 in assay [13] is 51.6 µM (inactive); in [14], 57 µM (inactive); in [15], 66.5 µM (inactive); in assay [16], 61 µM (inactive); in [17] it was 20.6 µM (inactive); in assay [18], 53.7 µM (inactive). Besides, the GI50 in assay [19] was 41.1 µM (inactive); in [20] it was 54.3 µM (inactive).

For the molecule `N#C/C(=C\c1ccc2ccccc2c1)c1ccccc1`, the GI50 in assay [1] is 38.8 µM (inactive); in assay [2], 53.1 µM (inactive); in [3], 30.3 µM (inactive); in assay [5], 23 µM (inactive); in assay [6], 16.7 µM (inactive); in assay [7], 13 µM (inactive). In addition, the GI50 in [8] is 23.6 µM (inactive); in assay [9], 53.2 µM (inactive); in assay [10] it was 39.6 µM (inactive); in [11], 28.8 µM (inactive); in assay [12], 17.3 µM (inactive); in [13], 19.5 µM (inactive). Moreover, the GI50 in assay [14] was 13.1 µM (inactive); in [15], > 100 µM (inactive); in assay [16], 29.6 µM (inactive); in [17] it was 65.9 µM (inactive); in assay [18], 17.8 µM (inactive); in assay [19], 21.7 µM (inactive). In addition, the GI50 in assay [20] was 39.5 µM (inactive).

As for `Clc1ccc(CCn2ccc3ccccc32)c(Cl)c1`, the GI50 in assay [1], in assay [2], in [3], in [4], in assay [5] and in assay [6] was > 100 µM (inactive) in each case. The GI50 in assay [7], in assay [8], in assay [9], in assay [10], in assay [11] and in assay [12] was > 100 µM (inactive) throughout. Further, the GI50 in assay [13], in assay [14], in [15], in assay [16], in assay [17] and in assay [18] was > 100 µM (inactive) in each case. Further, the GI50 in [19] and in assay [20] was > 100 µM (inactive) in each case.

Consider `Cn1c(=O)c2nc3sc4c(n3c2n(C)c1=O)C(=O)c1ccccc1C4=O`, for which the GI50 in assay [1] was > 26.5 µM (inactive); in [2], 38.4 µM (inactive); in assay [3], > 54.8 µM (inactive); in assay [4] it was > 81.7 µM (inactive); in assay [5] it was 39 µM (inactive); in [6] it was > 75 µM (inactive). The GI50 was 12.1 µM (inactive) in assay [7]; > 100 µM (inactive) in assay [8]; 65.8 µM (inactive) in [9]; > 78.5 µM (inactive) in assay [10]; > 66.5 µM (inactive) in assay [11]; > 61.7 µM (inactive) in [12]. Moreover, the GI50 in assay [13] is > 100 µM (inactive); in [14], > 100 µM (inactive); in assay [15], 57.3 µM (inactive); in assay [16], > 64.6 µM (inactive); in assay [17] it was 16.5 µM (inactive); in assay [18] it was > 78.9 µM (inactive). Also, the GI50 was > 80.2 µM (inactive) in assay [19] and 13.5 µM (inactive) in assay [20].
